Source: patent publication US8716333B2, “Process and compounds for the manufacture of oseltamivir and analogs thereof, and new antiviral agents” (Brock University, priority 2009, dated 2014)

Key:
Neu1 sialidase = target: T1, Neu1 sialidase (Mus musculus, UniProt O35657); experiment: LPS-induced Neu1 sialidase activity in live RAW-blue macrophage cells (4MU-NeuAc fluorescence); format: cell-based; details: for IC50: LPS-induced sialidase activity on the cell surface of live RAW-blue macrophage cells, substrate 4MU-NeuAc, fluorescence at 1-2 min
T1 construct: endogenous in cells; host or cells: RAW-blue macrophage cells
Method: Inhibitory Potency of Compounds of the Application on Lipopolysaccharide (LPS)-Induced Neu1 Sialidase Activity in Live Raw-Blue Macrophage Cells
Compounds of the application were assessed for antiviral activity using an assay that detects sialidase activity on the surface of viable cells. […] Fluorescent images were taken at 1-2 minutes after adding the substrate using epi-fluorescent microscopy (40× objective). The mean fluorescence surrounding the cells for each of the images was measured using Image J software.

Compound	IC50 (Neu1 sialidase)	melting point	other results
CCOC(=O)C1=C[C@@H]2OC(C)=N[C@@H]2[C@@H](NC(=O)OC(C)(C)C)C1 [Compound 14, (3aR,4S,7aS)-ethyl 4-(tert-butoxycarbonylamino)-2-methyl-3a,4,5,7a-tetrahydrobenzo[d]oxazole-6-carboxylate]	–	45 to 49 °C	–
CCOC(=O)C1=C[C@@H](OC(CC)CC)[C@H](NC(C)=O)[C@@H](NC(=O)OC(C)(C)C)C1 [Compound 15, (3R,4R,5S)-ethyl 4-acetamido-5-(tert-butoxycarbonylamino)-3-(pentan-3-yloxy)cyclohex-1-enecarboxylate]	–	144 to 145 °C	–
CCOC(=O)C1=C[C@@H](OC(CC)CC)[C@H](NC(C)=O)[C@@H](N)C1 [oseltamivir phosphate 1a (Tamiflu ®), oseltamivir phosphate, reference compound]	–	–	inhibition of LPS-induced sialidase activity (Neu1 sialidase; RAW-blue macrophage cells, dose dependent manner): completely inhibited

More lines, main results first:

IC50 (Neu1 sialidase)	Compound	melting point	other results
0.14 µM	CC(=O)N[C@@H]1C=C[C@@](O)(C(=O)O)[C@H]2OC(C)(C)O[C@@H]12 [Compound 16, Sodium (3aS,4S,7R,7aS)-7-acetamido-4-hydroxy-2,2-dimethyl-3a,4,7,7a-tetrahydrobenzo[d][1,3]dioxole-4-carboxylate]	–	–
0.0127 µM	CC(=O)N[C@@H]1/C(=N/O)C=C(C(=O)O)[C@H]2OC(C)(C)O[C@H]21 [Compound 17, Sodium (3aR,7R,7aS,E)-7-acetamido-6-(hydroxyimino)-2,2-dimethyl-3a,6,7,7a-tetrahydrobenzo[d][1,3]dioxole-4-carboxylate]	–	–
7.41 µM	CC(=O)N[C@H]1[C@@H]2OC(C)(C)O[C@@H]2C(C(=O)O)=C[C@H]1O [Compound 19, Sodium (3aR,6R,7R,7aS)-7-acetamido-6-hydroxy-2,2-dimethyl-3a,6,7,7a-tetrahydrobenzo[d][1,3]dioxole-4-carboxylate]	–	–
